This note sets out measurements from patent US6579894B2, “Prolines as antimicrobial agents” (Merck & Co., Inc., priority 1999, dated 2003).

In experiment [1] the test system is aminoacyl-tRNA synthetases (aaRS). As to the kind of experiment: aaRS charging and trichloroacetic acid precipitation assay, IC50 (S. aureus). The conditions noted are these: aaRS of S. aureus; values are range classes. Format: biochemical. The protocol: (§1) IC50 determinations for the aminoacyl-tRNA synthetases (aaRS) isolated from pathogen or HeLa cells were carried out using a modification of the aaRS charging and trichloroacetic acid precipitation assay described previously (see examples: D. Kern et. al., Biochemie, 61, 1257-1272 (1979) and J. Gilbart et. al. Antimicrobial Agents and Chemotherapy, 37(1), 32-38 (1993)). The aaRS enzymes were prepared via standard cloning and expression methods and partially purified or partially purified from pathogen and HeLa cell extracts. The activity of each aaRS enzyme was standardized as trichloroacetic acid precipitable counts (cpm) obtained at 10 minutes reaction time at Km concentrations of substrates. For practical purposes, the minimal acceptable value is approximately 2000 cpm per 10 minute reaction.
(§2) Preincubations for IC50 determinations were initiated by incubating partially purified aaRS extracts in 50 mM HEPES (pH 7.5), 0.1 mM EDTA, 0.05 mg/ml bovine serum albumin, 10 mM dithiothreitol and 2.5% dimethyl sulfoxide with and without test compound (e.g. compound of the invention (preferably a compound of Formula I)) in a final volume of 20 microliters in a microtiter plate for 20 minutes at 25 C. Test compounds were typically present as serial dilutions in concentration ranges of 0.35 nM to 35 μM. Test compound solutions were prepared by dissolving test compound in 100% dimethyl sulfoxide and diluting to the final concentration with 50 mM HEPES, pH 7.5. IC50 determinations were typically performed in duplicate with each experiment containing 4-8 concentrations of inhibitor along with two no inhibitor controls.
(§3) IC50 incubations were initiated by supplementing the preincubation mixture to a final assay concentration of 10 mM MgCl2, 30 mM KCl, 10 mM KF, 50 mM HEPES (pH 7.5), 20 μM-500 mM ATP, 2-20 μM [^3H] amino acid, and 90-180 μM crude tRNA in a final volume of 35 microliters. The reaction was incubated at 25° C. for 5-20 minutes. At specified time points a 15 microliter aliquot was removed and added to a well of a Millipore filtration plate (Multiscreen-FB, MAFB NOB 10) containing 100 microliters of cold 5% (wt/vol) trichloroacetic acid. Trichloroacetic acid precipitable material was collected by filtration on Millipore Multiscreen filtration station, washed twice with cold 5% trichloroacetic acid, twice with water, and dried. Plates were typically allowed to air dry for several hours or they were baked at 50° C. in a vacuum oven for 30 minutes. The radioactivity on the dried plates was quantitated by the addition of Packard Microscint-20 to the wells and counting with a Packard TopCount scintillation counter.
(§4) Inhibitor activity was typically reported as a percentage of the control aaRS activity. The IC50 value was determined by plotting percent activity versus compound concentration in the assay and identifying the concentration at which 50% of the activity was remaining.

Experiment [2] has the same test system. As to the kind of experiment: aaRS charging and trichloroacetic acid precipitation assay, IC50 (E. faecalis). Format: biochemical. The conditions noted are these: aaRS of E. faecalis; values are range classes. The protocol:
as §1, §2, §3, §4

In a further experiment the test system is S. aureus. As to the kind of experiment: Whole cell antimicrobial screen, MIC (S. aureus). The settings on record: 2-fold dilutions, overnight incubation; for MIC: Staphylococcus aureus, read-out: MIC (μg/mL) Sa. Format: cell-based. On the procedure: (§5) Compounds were tested for antimicrobial activity against a panel of organisms according to standard procedures described by the National Committee for Clinical Laboratory Standards (NCCLS document M7-A3, Vol. 13, No. 25, 1993/NCCLS document M27-P, Vol. 12, No. 25, 1992). Compounds were dissolved in 100% DMSO and were diluted to the final reaction concentration (0.1 μg/ml-500 μg/ml) in microbial growth media. In all cases the final concentration of DMSO incubated with cells is less than or equal to 1%. For minimum inhibitory concentration (MIC) calculations, 2-fold dilutions of compounds were added to wells of a microtiter plate containing 1×10^5 bacteria or fungal cells in a final volume of 200 lambda of an appropriate media (Mueller-Hinton Broth; Haemophilus Test Media; Mueller-Hinton Broth+5% Sheep Blood; or […]). Plates were incubated overnight at an appropriate temperature (30° C.-37° C.) and optical densities (measure of cell growth) were measured using a commercial plate reader. The MIC value is defined as the lowest compound concentration inhibiting growth of the test organism.

The test system of the next experiment is E. faecalis. As to the kind of experiment: Whole cell antimicrobial screen, MIC (Efs). The settings on record: 2-fold dilutions, overnight incubation; for MIC: Enterococcus faecalis, read-out: MIC (μg/mL) Efs. The experiment is classed as cell-based. On the procedure: as §5
In a further experiment the test system is E. faecium. As to the kind of experiment: Whole cell antimicrobial screen, MIC (E. faecium). The experiment is classed as cell-based. The conditions noted are these: 2-fold dilutions, overnight incubation; for MIC: Enterococcus faecium, read-out: MIC (μg/mL) Efm. The protocol:
as §5

≈ marks a conversion by molar mass, not a printed value.

On to `O=C(NCc1nc2ccccc2[nH]1)C1CC(c2nn[nH]n2)CN1Cc1ccc(Cl)cc1Cl` (mixture of isomers) [130,706], for which the IC50 in experiment [1] and in experiment [2] was less than 500 nM in each case. Besides, the “MIC (μg/mL) Sa” value in the experiment on S. aureus is more than 100 µg/mL. The “MIC (μg/mL) Efs” value in the experiment on E. faecalis was more than 100 µg/mL. In addition, the “MIC (μg/mL) Efm” value in the experiment with E. faecium was more than 100 µg/mL.

With `O=C(NCc1nc2ccccc2[nH]1)[C@@H]1CCCN1Cc1ccc(Cl)cc1Cl` [126,881], the concentration for half-maximal inhibition (IC50) (usually the concentration at which inhibition is half-maximal) in experiment [1] was less than 500 nM; in experiment [2], 1000 to 10000 nM. Further, the figures for the MIC in the experiment on S. aureus and in the experiment on E. faecalis were 100 µg/mL (≈ 248 µM) and less than 100 µg/mL, respectively.

For the molecule `O=C(NCc1nc2ccccc2[nH]1)[C@@H]1CC(O)CN1Cc1ccc(Cl)cc1Cl` (stereo partly shown) [127,006], the 50% inhibitory concentration (IC50) in experiment [1] is less than 500 nM; in experiment [2], 1000 to 10000 nM. Also, the MIC in the experiment with S. aureus, with E. faecalis and in the experiment with E. faecium was less than 100 µg/mL in each case.

`N#CC1CC(C(=O)NCc2nc3ccccc3[nH]2)N(Cc2ccc(Cl)cc2Cl)C1` (stereo not shown) [127,566]: the IC50 in experiment [1] and in experiment [2] was 1000 to 10000 nM throughout. In addition, the MIC with S. aureus, in the experiment with E. faecalis and in the experiment with E. faecium was more than 100 µg/mL in each case.

In the case of `O=C(NCc1nc2ccccc2[nH]1)C1CC(OCc2ccccc2)CN1Cc1ccc(Cl)cc1Cl` (stereo not shown) [127,889], the half-maximal inhibitory concentration (IC50) in experiment [1] and in experiment [2] was 1000 to 10000 nM in each case. Besides, the MIC in the experiment on S. aureus, in the experiment on E. faecalis and in the experiment on E. faecium was more than 100 µg/mL each time.

Turning to `O=C1C[C@@H](C(=O)NCc2nc3ccccc3[nH]2)N(Cc2ccc(Cl)cc2Cl)C1` [130,692], the half-maximal inhibitory concentration (IC50) in experiment [1] and in experiment [2] was 1000 to 10000 nM in each case. The MIC with S. aureus, with E. faecalis and in the experiment with E. faecium was more than 100 µg/mL in each case.

As to `O=C(NCc1nc2ccccc2[nH]1)[C@@H]1CCCCN1Cc1ccc(Cl)cc1Cl` [130,693], the concentration for half-maximal inhibition (IC50) in experiment [1] and in experiment [2] was 1000 to 10000 nM each time. Besides, the “MIC (μg/mL) Sa” value with S. aureus was less than 100 µg/mL. Also, the “MIC (μg/mL) Efs” value in the experiment with E. faecalis is more than 100 µg/mL. In addition, the “MIC (μg/mL) Efm” value with E. faecium is 100 µg/mL (≈ 240 µM).

As to `O=C(NCc1nc2ccccc2[nH]1)C1CC(=NO)CN1Cc1ccc(Cl)cc1Cl` (stereo not shown) [130,707], the IC50 in experiment [1] and in experiment [2] was 1000 to 10000 nM each time. Moreover, the MIC with S. aureus, with E. faecalis and in the experiment on E. faecium was more than 100 µg/mL in each case.

Turning to `CON=C1CC(C(=O)NCc2nc3ccccc3[nH]2)N(Cc2ccc(Cl)cc2Cl)C1` (stereo not shown) [130,708], the 50% inhibitory concentration (IC50) in experiment [1] and in experiment [2] was 1000 to 10000 nM each time. For the same molecule, the MIC in the experiment with S. aureus, with E. faecalis and in the experiment with E. faecium was more than 100 µg/mL in each case.

Consider `O=C(O)CON=C1CC(C(=O)NCc2nc3ccccc3[nH]2)N(Cc2ccc(Cl)cc2Cl)C1` (stereo not shown) [130,709], for which the concentration for half-maximal inhibition (IC50) in experiment [1] and in experiment [2] was 1000 to 10000 nM in each case. In addition, the MIC in the experiment on S. aureus, in the experiment on E. faecalis and with E. faecium was more than 100 µg/mL throughout.

As for `O=C(NCc1nc2ccccc2[nH]1)[C@H]1CCCN1Cc1ccc(Cl)cc1Cl` [130,724], the 50% inhibitory concentration (IC50) in experiment [1] and in experiment [2] was 1000 to 10000 nM in each case. The “MIC (μg/mL) Sa” value in the experiment on S. aureus is less than 100 µg/mL. In the experiment with E. faecalis, the “MIC (μg/mL) Efs” value is more than 100 µg/mL. Further, the “MIC (μg/mL) Efm” value in the experiment with E. faecium was more than 100 µg/mL.

As for `O=C(NCc1nc2ccccc2[nH]1)C1CC(O)CN1Cc1ccc(Cl)cc1Cl` (stereo not shown) [130,725], the IC50 in experiment [1] and in experiment [2] was 10000 to 60000 nM throughout. Moreover, in the experiment on S. aureus, the “MIC (μg/mL) Sa” value was more than 100 µg/mL. Also, in the experiment with E. faecalis, the “MIC (μg/mL) Efs” value is more than 100 µg/mL. Also, the “MIC (μg/mL) Efm” value against E. faecium is more than 100 µg/mL.

Consider `O=C(NCc1nc2ccccc2[nH]1)[C@@H]1C[C@H](O)CN1Cc1ccc(Cl)cc1Cl` [130,900], for which the concentration for half-maximal inhibition (IC50) in experiment [1] and in experiment [2] was less than 500 nM each time. Further, the “MIC (μg/mL) Sa” value with S. aureus came out at 100 µg/mL (≈ 238 µM). Further, the “MIC (μg/mL) Efs” value against E. faecalis was less than 100 µg/mL. Moreover, in the experiment with E. faecium, the “MIC (μg/mL) Efm” value came to 100 µg/mL (≈ 238 µM).

For `O=C(NCc1nc2ccccc2[nH]1)[C@@H]1C[C@@H](O)CN1Cc1ccc(Cl)cc1Cl` [130,901], the 50% inhibitory concentration (IC50) was less than 500 nM in experiment [1] and 501 to 1000 nM in experiment [2]. Moreover, the “MIC (μg/mL) Sa” value in the experiment on S. aureus was less than 100 µg/mL. Also, the “MIC (μg/mL) Efs” value against E. faecalis was less than 100 µg/mL. Moreover, the “MIC (μg/mL) Efm” value with E. faecium is less than 100 µg/mL.

Consider `Clc1ccc(CN2CCC[C@H]2COCc2nc3ccccc3[nH]2)c(Cl)c1` [130,928], for which the IC50 in experiment [1] and in experiment [2] was 1000 to 10000 nM throughout. Besides, in the experiment on S. aureus, the “MIC (μg/mL) Sa” value was 100 µg/mL (≈ 256 µM). Moreover, the “MIC (μg/mL) Efs” value against E. faecalis is more than 100 µg/mL. Also, in the experiment with E. faecium, the “MIC (μg/mL) Efm” value is 100 µg/mL (≈ 256 µM).

Consider `O=C(O)CC1CC(C(=O)NCc2nc3ccccc3[nH]2)N(Cc2ccc(Cl)cc2Cl)C1` (stereo not shown) [130,973], for which the IC50 in experiment [1] and in experiment [2] was less than 500 nM throughout. Moreover, the MIC in the experiment with S. aureus, with E. faecalis and in the experiment with E. faecium was more than 100 µg/mL throughout.
